Data set [1] can be described thus: Calcein release across target membrane on adding lyso-phospholipid and fatty acid in the absence of PLA2. Particulars: 25 μM target membranes, pH=7.5, 39° C. As to the method:
FIG. 13. […] The concentration of the target membranes is 25 μM in a HEPES buffer with pH=7.5 at a temperature of 39° C.
The experimental model system consists of a negatively charged liposome carrier and a model target membrane. The carrier is a 100 nm unilamellar liposome made of dipalmitoyl phosphatidylcholine lipids (DPPC) with a small amount (2.5 mol %) of negatively charged lipid of the type dipaimitoyl phosphatidylethanolamine (DPPE)-PEG2000. The target membrane is another liposome made of 1,2-O-dioctadecyl-sn-glycero-phosphatidylcholine (D-O-SPC) which is a phospholipid where the acyl linkages of the stearoyl chains are ether bonds. In contrast to DPPC, D-O-SPC is inert towards PLA2-catalysed hydrolysis thereby mimicking the stability of an intact target cell membrane toward degradation by its own enzymes. This experimental assay, which permits simultaneous as well as separate investigation of the effect of destabilisers at the carrier liposomes and the effect of enhancers at the target membrane, involves entrapment of a water-soluble fluorescent calcein model drug in a self-quenching concentration, in the interior of the non-hydrolysable target liposome, rather than in the carrier liposome. […] The permeation of calcein across the D-O-SPC target membrane is subsequently monitored by the increase in fluorescence. […]

The subject of data set [2] is human red blood cells (RBC). The data set can be described thus: Hemolysis assay. Particulars: low concentrations, 37° C., 20 hours.
Protocol: Briefly, each sample was serially diluted with phosphate buffered saline (PBS), and 0.5 ml of each dilute suspension was mixed with 0.5 ml washed human red blood cells (RBC) [4% in PBS (v/v)]. Sample and standard were placed in a 37° C. incubator and agitated for 20 hours. Tubes were centrifuged at low speed (2000×G) for 10 minutes and 200 μl of the supernatant was quantitated by absorbance at 550 nm. 100 percent hemolysis was defined as the maximum amount of hemolysis obtained from the detergent Triton X-100.
The lipids were hydrated in phosphate buffered saline (PBS). 1-O-octadecyl-2-O-methyl-sn-glycero-3-phosphocholine (ET-18-OCH3) in PBS was included in the assay as a reference.
Briefly, each sample was serially diluted with PBS, and 0.5 ml of each dilute suspension of 1-O-DPPC liposomes were mixed with 0.5 ml washed human red blood cells (RBC) [4% in PBS (v/v)]. For controls, 0.5 ml of the red blood cell suspension was mixed with either 0.5 ml buffer solution (negative hemolysis control) or 0.5 ml water (positive hemolysis control). Samples and standard were placed in a 37° C. incubator and agitated for 20 hours. Tubes were centrifuged at low speed (2000×G) for 10 minutes to form RBCs pellets. 200 μl of the supernatant was quantified by absorbance at 550 nm using a Perkin-Elmer 320 scanning spectrophotometer. […]
Data set [3] addresses T1, Snake venom PLA2 (Agkistrodon piscivorus piscivorus) (Agkistrodon piscivorus piscivorus, UniProt P51972).
T1 construct: Purified snake venom PLA2 (Agkistrodon piscivorus piscivorus) was a generous gift from dr; R. L. Biltonen; tissue gift from dr; host or cells: snake venom of Agkistrodon piscivorus piscivorus
T1 sequence (P51972 1-123): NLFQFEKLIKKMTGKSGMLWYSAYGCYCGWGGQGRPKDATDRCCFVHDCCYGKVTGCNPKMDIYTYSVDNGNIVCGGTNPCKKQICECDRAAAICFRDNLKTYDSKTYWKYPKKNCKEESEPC
The data set can be described thus: Model system: PLA2-controlled calcein release across D-O-SPC target membrane with DPPC carrier liposomes. The format is biochemical.
Protocol: The temperature is 37° C. […] The percentage of calcein released is determined as % Release=100 (IF(t)−IB)/(IT−IB), where IF(t) is the measured fluorescence at time t after addition of the enzyme, IB is the background fluorescence, and IT is the total fluorescence measured after addition of Triton X-100 which leads to complete release of calcein by breaking up the target liposomes. […] The concentration of the target and carrier liposomes are 25 μM, and PLA2 is added in a 25 nM concentration in a HEPES buffer with pH=7.5.
The experimental model system consists of a negatively charged liposome carrier and a model target membrane. The carrier is a 100 nm unilamellar liposome made of dipalmitoyl phosphatidylcholine lipids (DPPC) with a small amount (2.5 mol %) of negatively charged lipid of the type dipaimitoyl phosphatidylethanolamine (DPPE)-PEG2000. The target membrane is another liposome made of 1,2-O-dioctadecyl-sn-glycero-phosphatidylcholine (D-O-SPC) which is a phospholipid where the acyl linkages of the stearoyl chains are ether bonds. In contrast to DPPC, D-O-SPC is inert towards PLA2-catalysed hydrolysis thereby mimicking the stability of an intact target cell membrane toward degradation by its own enzymes. […] The permeation of calcein across the D-O-SPC target membrane is subsequently monitored by the increase in fluorescence. […]

Data set [4] concerns the target T2, phospholipase A2 (A. piscivorus piscivorus) (Agkistrodon piscivorus piscivorus, UniProt P51972).
T2 sequence (P51972 1-123): T1 sequence (P51972 1-123)
Protocol: HPLC chromatograms illustrating the effect of phospholipase A2 hydrolysis of micelles composed DSPE-PEG750 (0.150 mM). The chromatograms show the amount of stearic acid generated before (solid line) phospholipase A2 (A. piscivorus piscivorus) was added to the micelle suspension and the amount (dashed line) of DSPE-PEG750 after the lag-burst. The dotted line show pure stearic acid (0.4 mM). The percentage hydrolysis was calculated on basis of the integrated area of the stearic acid standard (115850 units) and the integrated area of the sample (45630 units).
The hydrolysis of micelles composed DSPE-PEG750 was followed by analysis of the amount of stearic acid generated. The catalytic reaction was initiated by adding 8.9 μL of a 42 μM PLA2 (150 nM) stock solution to 2.5 ml a thermostated lipid suspension of DSPE-PEG750 (0.150 mM) equilibrated at 45° C. for 600 seconds prior to addition of PLA2. The characteristic burst behavior of PLA2 towards the micelles is signaled by a sudden increase in the intrinsic fluorescence from PLA2 at 340 nm after excitation at 285 nm followed by a concomitant decrease in the 90° light scattering from the lipid suspension (Hønger et al., Biochemistry 35, 9003–9006). Samples for HPLC analysis of the amount of stearic acid generated were taken before adding PLA2 and 100 sec after the observed lag-time.

The values that follow come from patent publication US7166297B2, “Lipid-based drug delivery systems against parasitic infections” (LiPlasome Pharma A/S, priority 2000, dated 2007).

For the compound `CCCCCCCCCCCCCCCC(=O)O` [fatty acid, palmitic acid], the “rate of calcein release across target membrane (in words)” value in data set [1] is given as “increased rate of calcein release”.

Consider `CCCCCCCCCCCCCCCCCCOC[C@H](COP(=O)([O-])OCC[N+](C)(C)C)OC` [ET-18-OCH3], for which the “hemolysis (in words)” value in data set [2] is “significant degree of hemolysis”.

As to `CC(C)CCC[C@@H](C)[C@H]1CC[C@H]2[C@@H]3CC=C4C[C@@H](O)CC[C@]4(C)[C@H]3CC[C@]12C` [cholesterol], the “effect on extracellular PLA2 activity (in words)” value is “activates” in data set [3] (≈3 mol % incorporated into liposomes) and “deactivated” in data set [3] (≈20 mol % incorporated into liposomes, data not shown).

As for “di-octadecanoyl-sn-glycero-3-phosphoethanolamine-N-[methoxy(polyethylene glycol)-750 [DSPE-PEG750]”, the “percent hydrolysis of DSPE-PEG750” value in data set [4] (0.150 mM DSPE-PEG750, 150 nM PLA2, 45° C.) is listed as 100%. The compound further yielded a lag time in data set [4] (45° C., 150 nM PLA2) of 10 s.
